Test results: ChEMBL document CHEMBL2216754, “Discovery of Imidazoquinolines with Toll-Like Receptor 7/8 Independent Cytokine Induction” (ACS Med Chem Lett, 2012)

What was measured:
[1] = Immunomodulatory activity in C57BL/6 mouse BMDC assessed as TNFalpha production at 30 uM after 3 days by FACS flow cytometric analysis (reference value: 91.3 +/- 34.5 pg/mL); assay type: functional
[2] = Immunomodulatory activity in C57BL/6 mouse BMDC assessed as IL-1beta production at 30 uM after 3 days by FACS flow cytometric analysis (reference value: 26.2 +/- 3.7 pg/mL); assay type: functional
[3] = Immunomodulatory activity in C57BL/6 mouse BMDC assessed as IL-12p40 production at 30 uM after 3 days by FACS flow cytometric analysis (reference value: 260.6 +/- 11.9 pg/mL); assay type: functional
[4] = Immunomodulatory activity in C57BL/6 mouse BMDC assessed as IL-10 production at 30 uM after 3 days by FACS flow cytometric analysis (reference value: 16.2 +/- 4.7 pg/mL); assay type: functional
Toll-like receptor 7 = molecular target: T1, Toll-like receptor 7 (Homo sapiens, UniProt Q9NYK1); test: Agonist activity at human TLR7 transfected in HEK cells assessed as NFkappaB induction after 24 hrs by specific secreted alkaline phosphatase gene assay; assay type: functional, cell-based, HEK293
T1 sequence (Q9NYK1 whole entry): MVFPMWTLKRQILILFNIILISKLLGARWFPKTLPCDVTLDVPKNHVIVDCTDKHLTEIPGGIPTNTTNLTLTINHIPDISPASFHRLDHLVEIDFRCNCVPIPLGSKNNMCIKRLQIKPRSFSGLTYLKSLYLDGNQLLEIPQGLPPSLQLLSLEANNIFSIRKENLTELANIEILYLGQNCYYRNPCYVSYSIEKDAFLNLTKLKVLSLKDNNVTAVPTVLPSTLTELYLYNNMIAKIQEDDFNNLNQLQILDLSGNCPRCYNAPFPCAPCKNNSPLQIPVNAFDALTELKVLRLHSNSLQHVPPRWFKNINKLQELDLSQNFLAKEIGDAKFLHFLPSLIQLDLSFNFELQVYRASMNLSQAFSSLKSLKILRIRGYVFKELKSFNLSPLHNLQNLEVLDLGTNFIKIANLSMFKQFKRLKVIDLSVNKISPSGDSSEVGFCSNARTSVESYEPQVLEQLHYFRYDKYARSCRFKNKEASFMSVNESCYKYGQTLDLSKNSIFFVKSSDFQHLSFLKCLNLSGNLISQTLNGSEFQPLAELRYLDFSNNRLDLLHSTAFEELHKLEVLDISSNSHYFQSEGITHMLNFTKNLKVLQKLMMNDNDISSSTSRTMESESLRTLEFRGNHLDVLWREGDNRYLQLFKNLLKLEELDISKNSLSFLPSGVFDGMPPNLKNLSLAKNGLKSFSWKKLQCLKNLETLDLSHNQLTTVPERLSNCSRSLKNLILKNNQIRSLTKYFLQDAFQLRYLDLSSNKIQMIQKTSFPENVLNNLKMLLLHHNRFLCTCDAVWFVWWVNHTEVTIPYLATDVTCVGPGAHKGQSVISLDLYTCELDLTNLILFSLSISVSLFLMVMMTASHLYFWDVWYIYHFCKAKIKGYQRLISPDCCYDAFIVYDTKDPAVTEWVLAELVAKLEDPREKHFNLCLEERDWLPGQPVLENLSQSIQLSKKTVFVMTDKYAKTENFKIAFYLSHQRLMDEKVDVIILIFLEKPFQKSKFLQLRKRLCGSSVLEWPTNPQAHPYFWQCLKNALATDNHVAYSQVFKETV

Toll-like receptor 8 = molecular target: T2, Toll-like receptor 8 (Homo sapiens, UniProt Q9NR97); test: Agonist activity at human TLR8 transfected in HEK cells assessed as NFkappaB induction after 24 hrs by specific secreted alkaline phosphatase gene assay; assay type: functional, cell-based, HEK293
T2 sequence (Q9NR97 whole entry): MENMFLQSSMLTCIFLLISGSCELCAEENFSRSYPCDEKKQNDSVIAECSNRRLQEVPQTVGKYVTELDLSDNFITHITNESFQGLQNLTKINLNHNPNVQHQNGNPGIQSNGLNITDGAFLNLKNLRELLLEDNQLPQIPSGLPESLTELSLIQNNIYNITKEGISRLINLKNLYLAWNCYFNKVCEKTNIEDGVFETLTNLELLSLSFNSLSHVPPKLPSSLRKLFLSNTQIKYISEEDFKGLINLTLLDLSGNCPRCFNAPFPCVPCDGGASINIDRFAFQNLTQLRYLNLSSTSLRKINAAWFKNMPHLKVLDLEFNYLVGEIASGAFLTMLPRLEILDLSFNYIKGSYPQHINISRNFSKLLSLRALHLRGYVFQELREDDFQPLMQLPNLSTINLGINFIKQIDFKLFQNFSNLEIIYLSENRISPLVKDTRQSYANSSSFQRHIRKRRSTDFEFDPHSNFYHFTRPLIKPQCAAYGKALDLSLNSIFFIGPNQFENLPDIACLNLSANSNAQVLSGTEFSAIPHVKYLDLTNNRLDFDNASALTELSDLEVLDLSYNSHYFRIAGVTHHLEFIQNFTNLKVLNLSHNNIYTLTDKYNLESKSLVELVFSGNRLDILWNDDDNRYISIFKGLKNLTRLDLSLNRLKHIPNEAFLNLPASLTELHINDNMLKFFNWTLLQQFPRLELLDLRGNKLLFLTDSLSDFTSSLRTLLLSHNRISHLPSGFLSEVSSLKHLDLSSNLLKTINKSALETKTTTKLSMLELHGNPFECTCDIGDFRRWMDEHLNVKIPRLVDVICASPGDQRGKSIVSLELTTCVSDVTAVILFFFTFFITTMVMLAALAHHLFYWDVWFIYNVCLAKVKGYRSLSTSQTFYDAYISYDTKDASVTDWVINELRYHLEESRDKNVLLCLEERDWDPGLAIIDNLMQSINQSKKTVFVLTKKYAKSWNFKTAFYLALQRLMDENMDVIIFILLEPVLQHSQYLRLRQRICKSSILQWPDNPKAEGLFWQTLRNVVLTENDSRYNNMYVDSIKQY

[5] = Immunomodulatory activity in C57BL/6 mouse BMDC assessed as TNFalpha production at 30 uM after 3 days by FACS flow cytometric analysis relative to imiquimod; assay type: functional
[6] = Immunomodulatory activity in C57BL/6 mouse BMDC assessed as IL-12p40 production at 30 uM after 3 days by FACS flow cytometric analysis relative to imiquimod; assay type: functional

EC50 (Toll-like receptor 7) [µM] | EC50 (Toll-like receptor 8) [µM] | SMILES | Activity [1] [pg/mL] | Activity [2] [pg/mL] | Activity [3] [pg/mL] | Activity [4] [pg/mL] | fold change (FC) [5] | fold change (FC) [6]
12.1 | > 270 | CC(C)Cn1cnc2c(N)nc3ccccc3c21 [IMIQUIMOD] | 593 | 35 | 889 | 33 |  | 
95 | > 270 | CC(C)(O)Cn1cnc2c(N)nc3ccccc3c21 | 2041 | 61 | 839 | 60 |  | 
 |  | CCOCc1nc2c(N)nc3ccccc3c2n1CC(C)(C)O [RESIQUIMOD] | 2134 | 38 | 1491 | 72 |  | 
> 270 | > 270 | COC(=O)c1ccc2c(c1)nc(N)c1ncn(CC(C)(C)O)c12 | 1451 | 1144 | 1773 | 94 | >2 | >2
 |  | CCCCc1nc2c(N)nc3ccccc3c2n1CC(C)(C)O | 1743 | 73 | 864 | 181 |  | 
1.2 | 41.3 | CCCCc1nc2c(N)nc3cc(C(=O)OC)ccc3c2n1CC(C)(C)O | 1353 | 893 | 1286 | 110 |  | 
